Results reported in patent publication US20130040882A1, “USE OF FIBROBLAST GROWTH FACTOR FRAGMENTS” (NOVARTIS AG, priority 2003, published 2013).
Several values for one entry are separate records, joined by “and”; a condition that tells them apart may be missing. Identical values can stand only once.

Assay: Salmon calcitonin/PTS893 monkey study: haematology;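 also: haematology parameters were measured in blood collected from a peripheral vein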
Assay type: in vivo, cynomolgus monkeys (Macaca fascicularis)
Protocol: Animals were fasted overnight before blood collection but had free access to water. Blood samples were taken from a peripheral vein. Standard haematology and clinical chemistry analysis were performed once during pretest and at the end of the treatment period. Blood samples were collected from each animal at the same intervals as described for the clinical chemistry investigations. The serum samples were deep-frozen (approximately −80° C.) until analyses for hormone determination.

Q: Which “Haematology L” value (females, d7) does the source give for “Leu8, Asp10, Lysll, A1a16, G1n18, Thr33, A1a34 human PTH 1-34 [PTS893, Leu8, Asp10, Lysll, A1a16, G1n18, Thr33, A1a34 human PTH 1-34 [hPTH(1-34)]]” here?
A: 6.29 pg/ml and 5.87 pg/ml

Q: What about the “Haematology M” value (females, d7) of the same substance?
A: 0.44 nmol/l

Q: And the “Haematology MCH” value (females, d7)?
A: 18.9 ng/ml and 19.0 ng/ml

Q: What about the “Haematology N” value (females, d7) of the same substance?
A: 10.8 nmol/l and 5.49 nmol/l

Q: And the “Haematology PCV” value (females, d7)?
A: 0.41 mU/l and 0.43 mU/l

Q: What about the “Haematology PLAT” value (females, d7) of the same substance?
A: 525 nmol/l and 382 nmol/l

Q: What about the “Haematology RBC” value (females, d7) of the same substance?
A: 6.2 nmol/l and 6.4 nmol/l

Q: What about the “Haematology E” value (females, d13) of the same substance?
A: 0.21 mUI/l and 0.29 mUI/l

Q: And the “Haematology HB” value (females, d13)?
A: 11.3

Q: And the “Haematology L” value (females, d13)?
A: 5.81 pg/ml and 5.21 pg/ml

Q: What about the “Haematology MCH” value (females, d13) of the same substance?
A: 19.3 ng/ml and 19.2 ng/ml

Q: And the “Haematology MCHC” value (females, d13)?
A: 28.6 pg/ml and 29.2 pg/ml

Q: What about the “Haematology N” value (females, d13) of the same substance?
A: 6.36 nmol/l and 4.18 nmol/l

Q: And the “Haematology PCV” value (females, d13)?
A: 0.40 mU/l and 0.39 mU/l

Q: What about the “Haematology PLAT” value (females, d13) of the same substance?
A: 496 nmol/l and 309 nmol/l

Q: What about the “Haematology RBC” value (females, d13) of the same substance?
A: 5.9 nmol/l

Q: And the “Haematology L” value (females, d−8 (before dosing))?
A: 3.92 pg/ml and 4.40 pg/ml

Q: What about the “Haematology M” value (females, d−8 (before dosing)) of the same substance?
A: 0.80 nmol/l and 0.54 nmol/l

Q: And the “Haematology MCH” value (females, d−8 (before dosing))?
A: 19.3 ng/ml

Q: And the “Haematology MCHC” value (females, d−8 (before dosing))?
A: 30.6 pg/ml and 30.2 pg/ml

Q: And the “Haematology N” value (females, d−8 (before dosing))?
A: 5.34 nmol/l and 9.05 nmol/l

Q: What about the “Haematology PCV” value (females, d−8 (before dosing)) of the same substance?
A: 0.44 mU/l and 0.43 mU/l

Q: And the “Haematology RBC” value (females, d−8 (before dosing))?
A: 6.9 nmol/l and 6.7 nmol/l

Q: What about the “Haematology B” value (males, d7) of the same substance?
A: 0.02 G/l and 0.03 G/l

Q: What about the “Haematology HB” value (males, d7) of the same substance?
A: 11.3 g/dl and 11.9 g/dl

Q: What about the “Haematology L” value (males, d7) of the same substance?
A: 5.91 G/l and 5.30 G/l

Q: What about the “Haematology MCH” value (males, d7) of the same substance?
A: 17.7 pg and 20.2 pg

Q: And the “Haematology MCHC” value (males, d7)?
A: 29.3 g/dl and 30.2 g/dl

Q: What about the “Haematology MCV” value (males, d7) of the same substance?
A: 60 fl and 67 fl

Q: What about the “Haematology PCV” value (males, d7) of the same substance?
A: 0.38 l/l and 0.40 l/l

Q: And the “Haematology PLAT” value (males, d7)?
A: 456 G/l and 589 G/l

Q: What about the “Haematology RBC” value (males, d7) of the same substance?
A: 6.4 T/l and 5.9 T/l

Q: And the “Haematology WBC” value (males, d7)?
A: 8.4 G/l and 15.0 G/l

Q: What about the “Haematology B” value (males, d13) of the same substance?
A: 0.04 G/l and 0.03 G/l

Q: And the “Haematology HB” value (males, d13)?
A: 11.7 g/dl and 11.8 g/dl

Q: And the “Haematology L” value (males, d13)?
A: 5.37 G/l and 4.86 G/l

Q: What about the “Haematology M” value (males, d13) of the same substance?
A: 0.27 G/l and 0.46 G/l

Q: And the “Haematology MCH” value (males, d13)?
A: 17.3 pg and 20.3 pg

Q: And the “Haematology MCHC” value (males, d13)?
A: 27.5 g/dl and 29.2 g/dl

Q: What about the “Haematology MCV” value (males, d13) of the same substance?
A: 63 fl and 70 fl

Q: What about the “Haematology PCV” value (males, d13) of the same substance?
A: 0.43 l/l and 0.41 l/l

Q: What about the “Haematology PLAT” value (males, d13) of the same substance?
A: 330 G/l and 452 G/l

Q: And the “Haematology RBC” value (males, d13)?
A: 6.8 T/l and 5.8 T/l

Q: What about the “Haematology WBC” value (males, d13) of the same substance?
A: 8.8 G/l and 11.9 G/l

Q: What about the “Haematology HB” value (males, d−6 (before dosing)) of the same substance?
A: 13.6 g/dl and 13.2 g/dl

Q: What about the “Haematology L” value (males, d−6 (before dosing)) of the same substance?
A: 5.07 G/l and 3.99 G/l

Q: What about the “Haematology MCH” value (males, d−6 (before dosing)) of the same substance?
A: 18.0 pg and 20.4 pg

Q: And the “Haematology MCHC” value (males, d−6 (before dosing))?
A: 31.5 g/dl and 33.1 g/dl

Q: And the “Haematology MCV” value (males, d−6 (before dosing))?
A: 57 fl and 62 fl

Q: What about the “Haematology N” value (males, d−6 (before dosing)) of the same substance?
A: 4.45 G/l and 4.80 G/l

Q: What about the “Haematology PCV” value (males, d−6 (before dosing)) of the same substance?
A: 0.43 l/l and 0.40 l/l

Q: What about the “Haematology PLAT” value (males, d−6 (before dosing)) of the same substance?
A: 325 G/l and 459 G/l

Q: And the “Haematology RBC” value (males, d−6 (before dosing))?
A: 7.6 T/l and 6.5 T/l

Q: And the “Haematology WBC” value (males, d−6 (before dosing))?
A: 10.4 G/l and 9.1 G/l
